Results taken from US20150065416A1, “NOVEL DRUG COMBINATION” (FAB PHARMA SAS, priority 2013, published 2015).
≈ marks a conversion by molar mass, not a printed value. Where two headings read alike, the source gives them in different places.

Columns and labels:
Format in all cases: cell-based, Acinetobacter baumannii
A. baumannii isolates [1] = assay: Individual antimicrobial susceptibility testing (MIC, broth microdilution, CLSI); conditions: for MIC50 / MIC90: Acinetobacter baumannii
Method: In the antimicrobial susceptibility testing 77 isolates of A. baumannii (from 2010) in the following sub-groups were tested: • 22 isolates generally susceptible to antimicrobial agents (“Sus”) • 20 carbapenem-resistant isolates (e.g. “MPM-R”) • 20 aminoglycoside-resistant isolates (e.g. “AMK-R”) • 15 colistin-resistant isolates. (e.g. “COL-R”)
Minimum inhibitory concentration (MIC) endpoints were determined by broth microdilution according to CLSI guidelines (CLSI, M7-A8 & M100-S22, 2012). Panels were prepared at IHMA using cation-adjusted Mueller-Hinton broth. Colonies were taken directly from a second-pass culture plate and prepared to a suspension equivalent of the 0.5 McFarland standard using normal saline.
Testing was carried out as described in the General Procedures to determine minimum inhibitory concentration (MIC) end points for compound (I), amikacin, colistin, gentamicin, meropenem and tobramycin, for 77 A. baumannii isolates. Under the “MIC (μg/ml)” heading, the first column (Range) indicates the MIC end points for the particular number (N) of isolates tested, the second column (50%) provides an estimate of the concentration that inhibits 50% (MIC50) of bacterial isolates tested, and the third column (90%) provides an estimate of the concentration that inhibits 90% of the bacterial isolates tested.

A. baumannii isolates [2] = assay: Checkerboard testing (compound (I)/antibacterial agent interaction, FIC index); conditions: Acinetobacter baumannii
Method: Checkerboard interaction studies were performed using 5 isolates from each of the sub-groups and time kill studies were performed using 3 isolates from each sub-group.
Checkerboards (20 isolates, 5 per sub-group) were prepared so as to contain multiple concentrations of compound (I) with different additional antibacterial agents (amikacin, gentamicin, colistin, meropenem and tobramycin) as follows:
Serial two-fold dilutions of the antimicrobial agents alone or in combination in wells of 96 well microtiter plates were inoculated with the appropriate inoculum so that each well contained approximately 4-5×10^4 CFU/ml. Plates were incubated at 35° C. for 16-20 hours. Combination concentrations were tested between 0.25×MIC and 2×MIC. Growth and sterility controls were also included in each plate.
Synergy, indifference and antagonism were calculated based upon the use of the fractional inhibitory concentration (FIC) indices as described by Pillai, Moellering & Eliopoulos (2005) whereby:
Synergism=FIC index of ≦0.5 Indifference=FIC index >1 but ≦4 Additivity >0.5 to 1 Antagonism=FIC index of >4
Checkerboard studies were carried out as described in General Procedures using twenty different A. baumannii isolates with 5 per sub-group of: susceptible, amikacin-resistant, colistin-resistant and meropenem-resistant.

[3] = test system: A. baumannii CIP 5377, CIP 7034, AYE, SAN, RCH; assay: Antimicrobial susceptibility testing (MIC, broth microdilution, EUCAST; Example 5); conditions: Acinetobacter baumannii, read-out: MIC
Source text: A. baumannii CIP 5377 (ATCC® 17978): low cephalosporinase producing strain, susceptible to meropenem and amikacin, isolated in an infected patient
A. baumannii CIP 7034: low cephalosporinase producing strain, susceptible to meropenem and amikacin A. baumannii AYE ATCC® BAA1710™: extended spectrum beta-lactamase producing strain susceptible to meropenem and resistant to amikacin
A. baumannii SAN-94040 (SAN): cephalosporinase-overproducing strain, susceptible to meropenem and intermediate to amikacin and resistant to fluoroquinolones, isolated from blood cultures of an intensive care patient with nosocomial pneumonia from North Africa (Algeria).
A. baumannii RCH-69: cephalosporinase producing strain; low susceptibility to imipenem and resistant to amikacin.

A. baumannii isolates [4] = assay: Time kill study (Example 4); conditions: for MIC: Acinetobacter baumannii, read-out: MIC; for Time to kill 99.9%: alone
Method: A total of 12 isolates were tested (three per sub-group either susceptible, meropenem-resistant, amikacin-resistant or colistin-resistant). Two combinations were tested per isolate. Time-kill kinetics were performed by testing compound (I) and an additional antibacterial agent (amikacin, colistin and meropenem) individually at 1× and 4× the corresponding MIC of each antibacterial agent. […] Samples were taken at 0, 2, 4, 8 and 24 hours in order to determine colony forming units (CFU/mL).
Time-kill studies were carried out as described in General Procedures using combinations of compound (I) with amikacin, meropenem and colistin, respectively.

[5] = Amikacin-resistant isolates, N=20
[6] = Colistin-resistant isolates, N=15
[7] = Meropenem-resistant isolates, N=20

`NCC[C@H](O)C(=O)N[C@@H]1C[C@H](N)[C@@H](O[C@H]2O[C@H](CN)[C@@H](O)[C@H](O)[C@H]2O)[C@H](O)[C@H]1O[C@H]1O[C@H](CO)[C@@H](O)[C@H](N)[C@H]1O` [amikacin] showed an MIC50 (A. baumannii isolates [1]; All isolates, N=77) of 8 µg/mL (≈ 13.7 µM), an MIC90 (A. baumannii isolates [1]; All isolates, N=77) of over 128 µg/mL and an MIC50 (A. baumannii isolates [1]; [5]) of over 128 µg/mL. For the same compound, the MIC90 (A. baumannii isolates [1]; [5]) was over 128 µg/mL, the MIC50 (A. baumannii isolates [1]; [6]) was 64 µg/mL (≈ 109 µM) and the MIC90 (A. baumannii isolates [1]; [6]) was over 128 µg/mL. For the same compound, the MIC50 (A. baumannii isolates [1]; [7]) was 8 µg/mL (≈ 13.7 µM), the MIC90 (A. baumannii isolates [1]; [7]) was 128 µg/mL (≈ 219 µM) and the MIC50 (A. baumannii isolates [1]; Susceptible isolates, N=22) was 4 µg/mL (≈ 6.83 µM). The MIC90 (A. baumannii isolates [1]; Susceptible isolates, N=22) was 8 µg/mL (≈ 13.7 µM), the “MIC Range” value (A. baumannii isolates [1]; Susceptible isolates, N=22) was 0.25 to 8 µg/mL and the MIC (A. baumannii isolates [2]; A. baumannii 441142, colistin-resistant, read-out: MIC) was over 1020 µg/mL. It also gave an MIC (A. baumannii isolates [2]; A. baumannii 441160, colistin-resistant, read-out: MIC) of over 1020 µg/mL, an MIC (A. baumannii isolates [2]; A. baumannii 463996, colistin-resistant, read-out: MIC) of 8 µg/mL and an MIC (A. baumannii isolates [2]; A. baumannii 466936, colistin-resistant, read-out: MIC) of 64 µg/mL. The MIC (A. baumannii isolates [2]; A. baumannii 517303, colistin-resistant) was 128 µg/mL, the MIC (A. baumannii isolates [2]; A. baumannii 618649, meropenem-resistant, read-out: MIC) was 4 µg/mL and the MIC (A. baumannii isolates [2]; A. baumannii 625917, meropenem-resistant, read-out: MIC) was 4 µg/mL. For the same compound, the MIC (A. baumannii isolates [2]; A. baumannii 628760, susceptible, read-out: MIC) was 8 µg/mL, the MIC (A. baumannii isolates [2]; A. baumannii 637723, amikacin-resistant, read-out: MIC) was 256 µg/mL and the MIC (A. baumannii isolates [2]; A. baumannii 638115, amikacin-resistant, read-out: MIC) was 1020 µg/mL. It also gave an MIC (A. baumannii isolates [2]; A. baumannii 650216, meropenem-resistant, read-out: MIC) of 4 µg/mL, an MIC (A. baumannii isolates [2]; A. baumannii 655932, amikacin-resistant, read-out: MIC) of 512 µg/mL and an MIC (A. baumannii isolates [2]; A. baumannii 661954, amikacin-resistant, read-out: MIC) of 512 µg/mL. For the same compound, the MIC (A. baumannii isolates [2]; A. baumannii 667848, meropenem-resistant, read-out: MIC) was 4 µg/mL, the MIC (A. baumannii isolates [2]; A. baumannii 668116, susceptible, read-out: MIC) was 2 µg/mL and the MIC (A. baumannii isolates [2]; A. baumannii 668239, amikacin-resistant, read-out: MIC) was over 1020 µg/mL. For the same compound, the MIC (A. baumannii isolates [2]; A. baumannii 670348, susceptible, read-out: MIC) was 8 µg/mL, the MIC (A. baumannii isolates [2]; A. baumannii 671050, meropenem-resistant, read-out: MIC) was 8 µg/mL and the MIC (A. baumannii isolates [2]; A. baumannii 672190, susceptible, read-out: MIC) was 4 µg/mL. For the same compound, the MIC (A. baumannii isolates [2]; A. baumannii 674340, susceptible, read-out: MIC) was 4 µg/mL, the MIC ([3]; A. baumannii AYE) was 32 µg/mL (≈ 54.6 µM) and the MIC ([3]; A. baumannii CIP 5377) was 2 µg/mL (≈ 3.42 µM). For the same compound, the MIC ([3]; A. baumannii CIP 7034) was 8 µg/mL (≈ 13.7 µM), the MIC ([3]; A. baumannii RCH) was over 32 µg/mL and the MIC ([3]; A. baumannii SAN) was 4 µg/mL (≈ 6.83 µM). For the same compound, the MIC (A. baumannii isolates [4]; isolate MPM-R-1) was 4 µg/mL, the MIC (A. baumannii isolates [4]; isolate MPM-R-2) was 8 µg/mL and the MIC (A. baumannii isolates [4]; isolate MPM-R-3) was 4 µg/mL. For the same compound, the MIC (A. baumannii isolates [4]; isolate Sus-1) was 2 µg/mL, the MIC (A. baumannii isolates [4]; isolate Sus-2) was 4 µg/mL and the MIC (A. baumannii isolates [4]; isolate Sus-3) was 4 µg/mL. For the same compound, the “Time to kill 99.9%” value (A. baumannii isolates [4]; MPM-R-1, 1xMIC) was 1.4 h, the “Time to kill 99.9%” value (A. baumannii isolates [4]; MPM-R-1, 4xMIC) was 1.2 h and the “Time to kill 99.9%” value (A. baumannii isolates [4]; MPM-R-2, 1xMIC) was 1.3 h. For the same compound, the “Time to kill 99.9%” value (A. baumannii isolates [4]; MPM-R-2, 4xMIC) was 1.2 h, the “Time to kill 99.9%” value (A. baumannii isolates [4]; MPM-R-3, 1xMIC) was 1.4 h and the “Time to kill 99.9%” value (A. baumannii isolates [4]; MPM-R-3, 4xMIC) was 1.2 h. The “Time to kill 99.9%” value (A. baumannii isolates [4]; Sus-1, 1xMIC) was 1.7 h, the “Time to kill 99.9%” value (A. baumannii isolates [4]; Sus-1, 4xMIC) was 1.2 h and the “Time to kill 99.9%” value (A. baumannii isolates [4]; Sus-2, 4xMIC) was 1.2 h. The “Time to kill 99.9%” value (A. baumannii isolates [4]; Sus-3, 1xMIC) was 1.3 h, the “Time to kill 99.9%” value (A. baumannii isolates [4]; Sus-3, 4xMIC) was 1.3 h and the “effect in time-kill studies when tested alone” value (A. baumannii isolates [4]; alone at 1× or 4×MIC) was “generally bactericidal”.
